Assay results from ChEMBL document CHEMBL1132085, “Analogues of 4,5-bis(3,5-dichlorophenyl)-2-trifluoromethyl-1H-imidazole as potential antibacterial agents” (1999).
In brackets after ≈: the same amount, converted by molar mass.

Assays:
Format in all cases: functional
[1] = test system: Bacillus subtilis; assay: Antibacterial activity against Bacillus subtilis (Bs)
[2] = test system: Escherichia coli; assay: Antibacterial activity against Escherichia coli (Ec)
[3] = test system: Escherichia coli; assay: Antibacterial activity against Escherichia coli +polymyxin (Ec+)
[4] = test system: Staphylococcus aureus; assay: Antibacterial activity against methicillin resistant Staphylococcus aureus (MRSA)

| Structure (SMILES) | MIC [1] | MIC [2] | MIC [3] | MIC [4] |
| --- | --- | --- | --- | --- |
| FC(F)(F)c1nc(-c2cc(Cl)cc(Cl)c2)c(-c2cc(Cl)cc(Cl)c2)[nH]1 | 4 µg/mL (≈ 9.39 µM) | > 32 µg/mL | 16 µg/mL (≈ 37.6 µM) | 0.25 µg/mL (≈ 0.587 µM) |
| CSc1nc(-c2cc(Cl)cc(Cl)c2)c(-c2cc(Cl)cc(Cl)c2)[nH]1 | > 32 µg/mL | > 32 µg/mL | > 32 µg/mL | > 32 µg/mL |
| Clc1cc(Cl)cc(-c2nc[nH]c2-c2cc(Cl)cc(Cl)c2)c1 | 4 µg/mL (≈ 11.2 µM) | > 32 µg/mL | 8 µg/mL (≈ 22.3 µM) | > 32 µg/mL |
| CCNC(=O)c1nc(-c2cc(Cl)cc(Cl)c2)c(-c2cc(Cl)cc(Cl)c2)[nH]1 | > 32 µg/mL | > 32 µg/mL | > 32 µg/mL | > 32 µg/mL |
| COC(=O)c1nc(-c2cc(Cl)cc(Cl)c2)c(-c2cc(Cl)cc(Cl)c2)[nH]1 | > 32 µg/mL | > 32 µg/mL | > 32 µg/mL | > 32 µg/mL |
| Oc1nc(-c2cc(Cl)cc(Cl)c2)c(-c2cc(Cl)cc(Cl)c2)[nH]1 | 4 µg/mL (≈ 10.7 µM) | > 32 µg/mL | 8 µg/mL (≈ 21.4 µM) | 8 µg/mL (≈ 21.4 µM) |
| Cc1nc(-c2cc(Cl)cc(Cl)c2)c(-c2cc(Cl)cc(Cl)c2)[nH]1 | > 32 µg/mL | > 32 µg/mL | > 32 µg/mL | > 32 µg/mL |
| CS(=O)(=O)c1nc(-c2cc(Cl)cc(Cl)c2)c(-c2cc(Cl)cc(Cl)c2)[nH]1 | 4 µg/mL (≈ 9.17 µM) | > 32 µg/mL | 4 µg/mL (≈ 9.17 µM) | 4 µg/mL (≈ 9.17 µM) |
| Nc1nc(-c2cc(Cl)cc(Cl)c2)c(-c2cc(Cl)cc(Cl)c2)[nH]1 | 4 µg/mL (≈ 10.7 µM) | > 32 µg/mL | 8 µg/mL (≈ 21.4 µM) | 2 µg/mL (≈ 5.36 µM) |
| FC(F)(F)c1nc(-c2cc(Cl)cc(Cl)c2)c[nH]1 | 16 µg/mL (≈ 56.9 µM) | > 32 µg/mL | 8 µg/mL (≈ 28.5 µM) | 16 µg/mL (≈ 56.9 µM) |
| Cn1c(C(F)(F)F)nc(-c2cc(Cl)cc(Cl)c2)c1-c1cc(Cl)cc(Cl)c1 | 4 µg/mL (≈ 9.09 µM) | > 32 µg/mL | > 32 µg/mL | 8 µg/mL (≈ 18.2 µM) |
| O=Cc1nc(-c2cc(Cl)cc(Cl)c2)c(-c2cc(Cl)cc(Cl)c2)[nH]1 | 2 µg/mL (≈ 5.18 µM) | > 32 µg/mL | > 32 µg/mL | 2 µg/mL (≈ 5.18 µM) |
| Sc1nc(-c2cc(Cl)cc(Cl)c2)c(-c2cc(Cl)cc(Cl)c2)[nH]1 | > 32 µg/mL | > 32 µg/mL | > 32 µg/mL | > 32 µg/mL |
